In patent publication US6900019B1, “In-situ cell extraction and assay method” (Amersham Biosciences UK Limited, priority 1997, dated 2005):

Assays:
[1] = target: T1, Interleukin-6 / anti-IL-6 antibody binding (Homo sapiens, UniProt P05231); assay: IL-6 ELISA standard curves with lysis reagent and sequestrant; settings: 1% DTAB in standards
T1 construct: purchased Amersham RPN 2754
Protocol: Working standards (10.24400 pg/ml IL-6) were prepared in polypropylene tubes using assay buffer containing 1% (w/v) DTAB. The biotinylated antibody was prepared in buffer containing 3% (w/v) alpha-cyclodextrin. 50 μl of biotinylated antibody (containing cyclodextrin) was added to the anti-IL-6 coated plate. 50 μl of working standard and cell lysate was pipetted into separate wells of the anti-IL-6 coated plate. Non-specific binding was measured in the absence of IL-6 (zero IL-6 standard). The order of addition of biotinylated antibody and samples/standards is not critical to the procedure. […] The optical density was determined with a microtitre plate spectrophotometer set at 450 nm. Interleukin-6 levels were determined using log/linear analysis with reference to a standard curve. […]
(§1) Interleukin-6 standards (10.24-400 pg/ml) were prepared in standard diluent either in the presence (□) or absence (●) of lysis reagent (1% w/v DTAB). […] The plate was incubated for 2 hours at room temperature, and the optical density measured as described under the methods section.
as §1

[2] = system: binding protein prepared from bovine adrenal cortex; assay: Radioreceptor binding assay for D-myo-inositol 1,4,5-trisphosphate (IP3) with lysis reagent and sequestrant; settings: 0.5% w/v DTAB in standards
Protocol: Bovine adrenal glands were removed from animals and stored at −20° C. before preparing the binding protein. The cortex was dissected from the adrenal glands, homogenised in NaHCO3 (20 mM) with dithiothreitol (1 mM), and the homogenate centrifuged at 5000 g for 15 minutes. The supernatant was centrifuged at 35000 g for 20 minutes, the resulting pellet resuspended in the homogenisation buffer and centrifuged again at 35000 g for 20 minutes. The final pellet was resuspended in homogenisaton buffer at a protein concentration of between 20-40 mg/ml.
For the assay, aliquots (100 μl) of the bovine adrenal cortex microsome preparation were incubated in 100 μl of 0.1M Tris buffer (pH9.0), containing 4 mM EDTA and 4 mg/ml bovine serum albumin. Incubations were carried out for 15 minutes in a final volume of 0.4 ml with [^3H] inositol 1,4,5-trisphosphate (100 μl; 6000 cpm) sample or standard (100 μl; 0.19-25 pmol inositol 1,4,5-trisphosphate/assay tube). Non-specific binding was determined in the presence of 1 nmol inositol 1,4,5-trisphosphate/tube. Incubations were terminated by centrifugation (12000 g) (10 minutes at 4° C.) and removal of the supernatant by gentle decantation. Particulate bound radioactivity was analysed, after suspension in 0.15M sodium hydroxide followed by neutralisation with 10% acetic acid, by liquid scintillation counting […]

T1 sequence (P05231 30-212): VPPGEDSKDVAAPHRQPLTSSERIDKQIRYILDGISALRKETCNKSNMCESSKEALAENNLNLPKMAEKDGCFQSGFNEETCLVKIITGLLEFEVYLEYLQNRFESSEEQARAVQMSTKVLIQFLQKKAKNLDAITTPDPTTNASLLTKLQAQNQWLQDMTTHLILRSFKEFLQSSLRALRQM

antibody binding in the IL-6 ELISA ([1]; 3% (w/v) alpha-cyclodextrin in biotinylated antibody) | binding of [3H]IP3 to the receptor preparation ([2]; alpha-cyclodextrin 2% final w/v in tracer and adrenal cortex preparation) | Compound | antibody binding in the IL-6 ELISA ([1]; zero cyclodextrin) | binding of [3H]IP3 to the receptor preparation ([2]; no sequestrant)
Binding was restored | Binding was restored | OC[C@H]1O[C@@H]2O[C@H]3[C@H](O)[C@@H](O)[C@@H](O[C@H]4[C@H](O)[C@@H](O)[C@@H](O[C@H]5[C@H](O)[C@@H](O)[C@@H](O[C@H]6[C@H](O)[C@@H](O)[C@@H](O[C@H]7[C@H](O)[C@@H](O)[C@@H](O[C@H]1[C@H](O)[C@H]2O)O[C@@H]7CO)O[C@@H]6CO)O[C@@H]5CO)O[C@@H]4CO)O[C@@H]3CO [CD, alpha-cyclodextrin] |  | 
 |  | CCCCCCCCCCCC[N+](C)(C)C.[Br-] [DTAB, dodecyl trimethyl ammonium bromide] | inhibition of antibody binding | total inhibition of binding
